# Paper PMC11139883, “Functional and structural dissection of glycosyltransferases underlying the glycodiversity of wolfberry-derived bioactive ingredients lycibarbarspermidines” (Nature Communications, 2024)
# How the values were obtained:
# Assay in all cases: LC-MS product assay, Michaelis-Menten fit
# Assay type in all cases: biochemical, Lycium barbarum
# Settings in all cases: 2.5 mM UDP-Glc, 1 mM MgCl2, 10 mM HEPES pH 7.0, 30 °C
# LbUGT3 = tested on: T1, LbUGT3
# T1 construct: full length (482 residues by printed domain borders); GST fusion (pGEX-2TK) from E. coli Rosetta (DE3) for assays; crystal protein with GST-His tag removed by TEV
# Excerpt: LC-MS product assay, Michaelis-Menten fit on LbUGT3
# LbUGT4 = tested on: T2, LbUGT4
# T2 construct: full length; GST fusion (pGEX-2TK) from E. coli Rosetta (DE3)
# Excerpt: LC-MS product assay, Michaelis-Menten fit on LbUGT4
# LbUGT2 = tested on: T3, LbUGT2
# T3 construct: full length; GST fusion (pGEX-2TK) from E. coli Rosetta (DE3)
# Excerpt: LC-MS product assay, Michaelis-Menten fit on LbUGT2
# [1] = substrate: O=C(/C=C/c1ccc(O)c(O)c1)NCCCNCCCCNC(=O)CCc1ccc(O)c(O)c1
# Excerpt: LC-MS product assay, Michaelis-Menten fit on LbUGT1
Km (LbUGT3),Km (LbUGT4),Km (LbUGT2),Molecule,Km [1],kcat [1],kcat/Km [1]
325 µM,901 µM,762 µM,"O=C(/C=C/c1ccc(O)c(O)c1)NCCCNCCCCNC(=O)CCc1ccc(O)c(O)c1 [compound 1, N^1-caffeoyl-N^10-dihydrocaffeoylspermidine]",–,–,–
–,–,–,"LbUGT1 (Lycium barbarum) (protein, full length (485 residues by printed domain borders); GST fusion (pGEX-2TK) from E. coli Rosetta (DE3) for assays; crystal protein with MBP-His tag removed by TEV) LTTKAELVFIPSPGAGHLISAIEIAKLILNRDERLCISVLIMKLPMDFGVQSYVASLSSSPRLQFVDITLDEKTVAGLLKNKESFFTDFIQGHKPKVKDFIHNTSFSKSGSGFSRLAGFVLDMFCTSMIDVASEFSVPSYIFLTSNAAFLALCYHFESLKKEHHIDTSKYKDSDEELTIPGFKNPYPGKFLPRLTTDQTTATTLFFDSVTRFKETKGIMVNTFAELEPFALQSLLVPKIYPVGPVVNFKEGGHGRNSESETESIIKWLDDQPESSVVFLCFGSMGSFDAEQIEEIAVALECSGHRFLWSLRRPPPKGKMELPSNYEDFQEVLPEGFIERTNGVGKVIGWAPQVAVLSHPAVGGFVSHCGWNSVLESLCFGVPIGAWPQYAEQQMNAFELVKQLGLAVEIRMDYFKDFEGKHGPVEIVTAKEIASGIRQLMADGEENEIRKRAKEMKEKSSAAMKEGGSSYASLGLLIEDVISNIS",259.4 µM,0.0057 s⁻¹,22.1 M⁻¹ s⁻¹
